Consider 28 compounds from patent US8871787B2, “Stable crystalline salt of (R)-3-fluorophenyl-3,4,5-trifluorobenzylcarbamic acid 1-azabicyclo [2.2.2]oct-3-yl ester” (Laboratorios Salvat, S.A., priority 2007, dated 2014).

In the first series the test system is patients suffering from Overactive Bladder syndrome. Put plainly: Phase II clinical trial: pharmacodynamics in overactive bladder patients (urodynamic assessments, tolerability). The following applies: 4 mg o.d., 4 weeks. How it is done: A pharmacodynamic study of tarafenacin tartrate in patients suffering from Overactive Bladder syndrome was performed to obtain first efficacy and tolerability data in this population.
The study was randomised, double-blind, placebo and active-controlled. Patients received tarafenacin tartrate at the dose of 0.1 or 0.2 mg, tolterodine 4 mg or placebo o.d. during 4 weeks, just after a 2 week single-blind wash-out period in which all patients received placebo. Urodynamic assessments were performed at baseline and after 4 weeks administration.
It was planned to screen approximately 100 patients and randomize 77 patients, to obtain outcome data on 63 patients. Patients who entered the study were randomized into the four treatment groups during the double blind treatment period.
After a Screening visit and a 14 day washout single blind period (placebo run in), patients were randomized to one of the four treatment arms by a 2:2:2:1 randomization schedule. In a single blind period, only the patients were blinded. During the treatment period, each patient received tarafenacin tartrate 0.1 mg/tarafenacin tartrate 0.2 mg/tolterodine (ER) 4 mg/placebo. Identical capsules were used to maintain the study blind.
The end of study procedures were performed at the Day 28 visit (End of Treatment [EOT]). A study follow up was conducted at Day 35 either telephonically or the patient was called to the clinic (End of Study [EOS]).
The primary endpoint was the pharmacodynamic endpoints and they were assessed as the mean change from baseline to Day 28 in urodynamic, salivary flow, and accommodation near point pharmacodynamic assessments.
Consider `Cc1ccc(O)c([C@H](CCN(C(C)C)C(C)C)c2ccccc2)c1` [tolterodine, reference compound], for which the “incidence of treatment emergent adverse events” value stood at 36%.

The same series, now with this note: human, in vivo.
With `Cc1ccc(O)c([C@H](CCN(C(C)C)C(C)C)c2ccccc2)c1` [tolterodine, reference compound], the “increase in infused volume” value came to 20 mL, the “increase in volume at first desire to void” value is listed as 33 mL and the “increase in volume at strong desire to void” value was 42 mL.

Test system in another series: not listed separately
Put plainly: Salt screening of compound I with several acids (aspect of the salt). It is filed as physicochemical. Conditions: free base and acid in hot ethanol, cooled, solvent evaporated. Here is the method:
To select the most suitable salt of compound I and minimize the undesirable hygroscopic properties of the hydrochloride, several acids were tested. The free base of compound I was dissolved in hot ethanol, and then acid solution in hot ethanol was added. The mixture was then stirred and heated for 30 min. After cooling to room temperature, the solvent was removed by evaporation. […]
For the compound `O=C(O)CCC(=O)O` [Succinic], the “Aspect of the salt” value is “Hygroscopic white foam”.
For the compound `O=C(O)CC(=O)O` [Malonic], the “Aspect of the salt” value is on record as “Oil”.
For the compound `O=C(O)CC(O)C(=O)O.O=C(OC1CN2CCC1CC2)N(Cc1cc(F)c(F)c(F)c1)c1cccc(F)c1.O=C(OC1CN2CCC1CC2)N(Cc1cc(F)c(F)c(F)c1)c1cccc(F)c1` (racemic) [DL-Malic (0.5 eq)], the “Aspect of the salt” value is “Hygroscopic red foam”.
Still for that read-out and setting: in the case of `CC(O)C(=O)O.O=C(OC1CN2CCC1CC2)N(Cc1cc(F)c(F)c(F)c1)c1cccc(F)c1` (racemic) [DL-Lactic] it was “Oil”; in that of `O=C(O)C(O)c1ccccc1.O=C(OC1CN2CCC1CC2)N(Cc1cc(F)c(F)c(F)c1)c1cccc(F)c1` (stereo not shown) [Mandelic], “White foam”; in that of `O=C(O)C(O)c1ccccc1.O=C(OC1CN2CCC1CC2)N(Cc1cc(F)c(F)c(F)c1)c1cccc(F)c1` [(S)-Mandelic], “Oil”.
Regarding `O=C(O)CC(O)C(=O)O.O=C(OC1CN2CCC1CC2)N(Cc1cc(F)c(F)c(F)c1)c1cccc(F)c1.O=C(OC1CN2CCC1CC2)N(Cc1cc(F)c(F)c(F)c1)c1cccc(F)c1` [D-Malic (0.5 eq)], the “Aspect of the salt” value is reported as “Hygroscopic red foam”.
For L-Tartaric, the “Aspect of the salt” value is given as “White foam”.
Take Citric: the “Aspect of the salt” value is “Oil”.
With `O=C(OC1CN2CCC1CC2)N(Cc1cc(F)c(F)c(F)c1)c1cccc(F)c1.O=S(=O)(O)c1ccccc1` (stereo not shown) [Benzenesulphonic], the “Aspect of the salt” value is recorded as “Oil”.
For `O=C(O)CC(O)C(=O)O.O=C(OC1CN2CCC1CC2)N(Cc1cc(F)c(F)c(F)c1)c1cccc(F)c1` (racemic) [DL-Malic], the “Aspect of the salt” value was “Hygroscopic red foam”.
Still for that read-out and setting: in the case of `O=C(O)CC(O)C(=O)O.O=C(OC1CN2CCC1CC2)N(Cc1cc(F)c(F)c(F)c1)c1cccc(F)c1` [D-Malic] it was “Hygroscopic red foam”.
On to Propionic, for which the “Aspect of the salt” value was “Hygroscopic white foam”.
Still for that read-out and setting: in the case of `CS(=O)(=O)O.O=C(OC1CN2CCC1CC2)N(Cc1cc(F)c(F)c(F)c1)c1cccc(F)c1` (stereo not shown) [Methanesulphonic] it was “Oil”; in that of `O=C(O)C(O)C(O)C(=O)O.O=C(OC1CN2CCC1CC2)N(Cc1cc(F)c(F)c(F)c1)c1cccc(F)c1` (racemic), “Adding MTBE precipitated a white solid”.
Consider `O=C(O)CC(O)C(=O)O.O=C(OC1CN2CCC1CC2)N(Cc1cc(F)c(F)c(F)c1)c1cccc(F)c1` [L-Malic], for which the “Aspect of the salt” value was “Oil”.
For the compound `O=C(O)C=CC(=O)O.O=C(OC1CN2CCC1CC2)N(Cc1cc(F)c(F)c(F)c1)c1cccc(F)c1.O=C(OC1CN2CCC1CC2)N(Cc1cc(F)c(F)c(F)c1)c1cccc(F)c1` (stereo not shown) [Fumaric (0.5 eq)], the “Aspect of the salt” value was “White foam”.
On to `O=C(O)C(=O)O.O=C(OC1CN2CCC1CC2)N(Cc1cc(F)c(F)c(F)c1)c1cccc(F)c1` (stereo not shown) [Oxalic], for which the “Aspect of the salt” value is recorded as “Hygroscopic white foam”.
For the compound Fumaric, the “Aspect of the salt” value is listed as “White foam”.
For `CC1(C)C2CCC1(CS(=O)(=O)O)C(=O)C2.O=C(OC1CN2CCC1CC2)N(Cc1cc(F)c(F)c(F)c1)c1cccc(F)c1` (racemic) [(RS)-10-Camphorsulfonic], the “Aspect of the salt” value is “Hygroscopic pink foam”.
As to `O=C(O)C=CC(=O)O.O=C(OC1CN2CCC1CC2)N(Cc1cc(F)c(F)c(F)c1)c1cccc(F)c1` (stereo not shown) [Maleic], the “Aspect of the salt” value was “Oil”.
Regarding `O=C(O)C(O)C(O)C(=O)O.O=C(OC1CN2CCC1CC2)N(Cc1cc(F)c(F)c(F)c1)c1cccc(F)c1.O=C(OC1CN2CCC1CC2)N(Cc1cc(F)c(F)c(F)c1)c1cccc(F)c1` [D-Tartaric (0.5 eq)], the “Aspect of the salt” value is reported as “White solid crystal precipitated in EtOH”.
Consider `CC=CC=CC(=O)O.O=C(OC1CN2CCC1CC2)N(Cc1cc(F)c(F)c(F)c1)c1cccc(F)c1` (stereo not shown) [Sorbic], for which the “Aspect of the salt” value is “Oil”.
For `O=C(O)C(O)C(O)C(=O)O.O=C(OC1CN2CCC1CC2)N(Cc1cc(F)c(F)c(F)c1)c1cccc(F)c1.O=C(OC1CN2CCC1CC2)N(Cc1cc(F)c(F)c(F)c1)c1cccc(F)c1` [L-Tartaric (0.5 eq)], the “Aspect of the salt” value is recorded as “White foam”.
On to `O=C(O)CC(O)C(=O)O.O=C(OC1CN2CCC1CC2)N(Cc1cc(F)c(F)c(F)c1)c1cccc(F)c1.O=C(OC1CN2CCC1CC2)N(Cc1cc(F)c(F)c(F)c1)c1cccc(F)c1` [L-Malic (0.5 eq)], for which the “Aspect of the salt” value is on record as “Oil”.
For the compound `CC1(C)C2CCC1(CS(=O)(=O)O)C(=O)C2.O=C(OC1CN2CCC1CC2)N(Cc1cc(F)c(F)c(F)c1)c1cccc(F)c1` [(S)-10-Camphorsulfonic], the “Aspect of the salt” value is “Oil”.
For the compound `O=C(OC1CN2CCC1CC2)N(Cc1cc(F)c(F)c(F)c1)c1cccc(F)c1.O=C1OC(C(O)CO)C(O)=C1O` (stereo not drawn) [L(+)-Ascorbic], the “Aspect of the salt” value is on record as “White foam”.
